Source: ChEMBL document CHEMBL1201862, “PubChem BioAssay data set” (2004)
Values joined by “and” are separate entries in the source; they are usually repeats but may differ in a detail not shown here. Equal entries are not always repeated.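 How tested: cells in 96-well plates exposed to compound for 48 hours at five concentrations. Here, GI50 denotes the concentration required for 50% inhibition of growth.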 Active and inactive are the calls of the source. Cut-off read from the data, not from the text of the source: active = GI50 up to about 1.1 µM and inactive = higher.

Tests used:
Test in all cases: NCI-60 cell line screen, 48 h
SNB-19 = tested on: SNB-19
786-0 = tested on: 786-0
SK-MEL-5 = tested on: SK-MEL-5
A498 = tested on: A498
ACHN = tested on: ACHN
SN12C = tested on: SN12C
SW-620 = tested on: SW-620
NCI-H23 = tested on: NCI-H23
OVCAR-8 = tested on: OVCAR-8
A549 = tested on: A549
HCC 2998 = tested on: HCC 2998
Malme-3M = tested on: Malme-3M
COLO 205 = tested on: COLO 205
KM12 = tested on: KM12
HT-29 = tested on: HT-29
UACC-62 = tested on: UACC-62
EKVX = tested on: EKVX
CAKI-1 = tested on: CAKI-1

Measured: GI50

CCN(CC)C(=S)SCC(=O)Nc1nc2c(s1)CCCC2
inactive: SNB-19 > 100 µM | 786-0 60.8 µM | SK-MEL-5 26 µM | A498 > 100 µM | ACHN > 100 µM | SN12C > 100 µM | SW-620 > 100 µM | NCI-H23 74.1 µM | OVCAR-8 > 100 µM | A549 > 100 µM | HCC 2998 > 100 µM | Malme-3M > 100 µM | COLO 205 95.1 µM | KM12 > 100 µM | HT-29 59.8 µM

Nc1nc2c(c(=O)[nH]1)NC(CO)CN2 (stereo unspecified)
inactive: SNB-19 > 100 µM | UACC-62 84.7 µM | 786-0 > 100 µM | EKVX > 100 µM | ACHN 79.4 µM | SN12C > 100 µM | SW-620 37.9 µM | NCI-H23 > 100 µM | OVCAR-8 71 µM | A549 > 100 µM | Malme-3M > 100 µM | COLO 205 > 100 µM | KM12 > 100 µM | HT-29 44.2 µM

C=C(COC(C)=O)CC(/C=C(\C)CC/C=C(\C)CO)OC(C)=O (stereo unspecified)
inactive: SNB-19 > 100 µM | UACC-62 > 100 µM | 786-0 > 100 µM | SK-MEL-5 > 100 µM | EKVX > 100 µM | A498 > 100 µM | ACHN > 100 µM | SN12C > 100 µM | SW-620 > 100 µM | NCI-H23 > 100 µM | OVCAR-8 > 100 µM | A549 > 100 µM | HCC 2998 > 100 µM | COLO 205 > 100 µM | KM12 > 100 µM | HT-29 > 100 µM

COc1ccc(/C=C2/N/C(=N\N=C/C(O)C(O)C(O)CO)NC2=O)cc1 (stereo unspecified)
inactive: 786-0 > 100 µM and 62.4 µM | EKVX > 100 µM | CAKI-1 > 100 µM | ACHN > 100 µM and 89.5 µM | SN12C > 100 µM | SW-620 > 100 µM and 77.8 µM | OVCAR-8 > 100 µM | A549 > 100 µM | HCC 2998 58.5 µM | Malme-3M > 100 µM | COLO 205 91.4 µM | HT-29 > 100 µM and 63.7 µM

COc1cccc(NC(=O)CC(=O)N2N=C(n3ccc4ccccc43)CC2c2ccccc2)c1 (stereo unspecified)
inactive: SNB-19 > 100 µM | UACC-62 > 100 µM | 786-0 > 100 µM | EKVX > 100 µM | A498 > 100 µM | ACHN > 100 µM | SN12C > 100 µM | SW-620 > 100 µM | NCI-H23 > 100 µM | OVCAR-8 > 100 µM | A549 > 100 µM | HCC 2998 > 100 µM | Malme-3M > 100 µM | COLO 205 > 100 µM | KM12 > 100 µM | HT-29 > 100 µM

CC1Cc2c(N)nc(NN)nc2NC1=O (stereo unspecified)
inactive: SNB-19 > 100 µM | UACC-62 > 100 µM | 786-0 > 100 µM | SK-MEL-5 > 100 µM | EKVX > 100 µM | ACHN > 100 µM | SN12C > 100 µM | SW-620 > 100 µM | NCI-H23 > 100 µM | OVCAR-8 > 100 µM | A549 > 100 µM | Malme-3M > 100 µM | COLO 205 > 100 µM | KM12 > 100 µM | HT-29 > 100 µM

CC(=O)N1CC(=O)NC1=S
inactive: SNB-19 > 100 µM | UACC-62 > 100 µM | 786-0 > 100 µM | SK-MEL-5 > 100 µM | EKVX > 100 µM | CAKI-1 > 100 µM | ACHN > 100 µM | SN12C > 100 µM | SW-620 > 100 µM | NCI-H23 > 100 µM | OVCAR-8 > 100 µM | A549 > 100 µM | Malme-3M > 100 µM | COLO 205 > 100 µM | KM12 > 100 µM | HT-29 > 100 µM

Nc1nc(Cl)cc(NCCCCCNc2cc(Cl)nc(N)n2)n1
inactive: SNB-19 > 100 µM | UACC-62 24 µM | 786-0 > 100 µM | SK-MEL-5 23.5 µM | EKVX 86.5 µM | CAKI-1 17 µM | ACHN 15.2 µM | SN12C > 100 µM | SW-620 > 100 µM | NCI-H23 55.5 µM | OVCAR-8 71.8 µM | A549 42 µM | HCC 2998 > 100 µM | COLO 205 > 100 µM | KM12 > 100 µM | HT-29 > 100 µM

O=C(O)C1=NN=C(C(=O)O)NN1
inactive: SNB-19 > 100 µM | UACC-62 > 100 µM | 786-0 > 100 µM | SK-MEL-5 > 100 µM | EKVX > 100 µM | CAKI-1 > 100 µM | ACHN > 100 µM | SN12C > 100 µM | SW-620 38.6 µM | NCI-H23 > 100 µM | OVCAR-8 > 100 µM | A549 > 100 µM | Malme-3M > 100 µM | COLO 205 > 100 µM | KM12 > 100 µM | HT-29 > 100 µM
